The values below come from patent publication US11306067B2, “Diphenyl substituted thiophene-2-amide derivatives and pharmaceutical compositions thereof useful as antimicrobial” (DENOVAMED INC., priority 2018, dated 2022).

Test [1] concerns Acinetobacter Baumannii ATCC 19606. Kind of test: Combination MIC of colistin for antibiotic adjuvant potential. Particulars: colistin alone; Acinetobacter ATCC 19606. Format: cell-based. More on the design: unit not given beside the values. As for the experimental part:
(§1) The MIC of colistin was determined against the bacteria specified below, by itself or in the presence of 1 ug/ml or 10 ug/ml of a compound disclosed herein (nd=not determined): […]

Test [2] concerns E. coli ATCC 25922. The description is as above. Format: cell-based. Particulars: colistin alone. More on the design: unit not given beside the values. The protocol: as §1
Test [3] concerns Pseudomonas aeurginosa ATCC 27853. Described as above. Format: cell-based. More on the design: unit not given beside the values. Particulars: colistin alone; Pseudomonas ATCC 27853. The protocol:
as §1

In test [4] the test system is Klebsiella pneumoniae (Colistin Resistant) MMX8390. The description is as above. Format: cell-based. Particulars: colistin alone; K. pneumoniae colistin resistant MMX8390. The protocol: as §1
For test [5], the system named is Klebsiella pneumoniae (Colistin Sensitive) MMX214. The test is described as above. It counts as cell-based. To be noted: colistin alone; K. pneumoniae colistin sensitive MMX214. As for the experimental part: as §1
For test [6], the system named is E. coli ATCC 25922. Also on record: unit not given beside the values. To be noted: colistin alone, unexplained range under the value, probably reference range; cited from earlier work.

Turning to colistin, the MIC of colistin in test [1] is recorded as 0.25; with E. coli ATCC 25922 [2] it was 0.25; in test [3], 0.25; in test [4], 16; in test [5], 2. The “MIC of colistin, range in parentheses” value in the test on E. coli ATCC 25922 [6] is reported as “(0.25-2)”.
